Measured values from a polymer gas permeability compilation.

| CH4 permeability [Barrer] | H2 permeability [Barrer] | N2 permeability [Barrer] | O2 permeability [Barrer] | Structure (SMILES) | CO2 permeability [Barrer] |
| --- | --- | --- | --- | --- | --- |
|  |  | 1.8 | 6.6 | */C=C/c1ccc(*)cc1[Si](CC)(CC)CC (repeat unit) | 24 |
|  |  | 930 | 1710 | *C(=C(*)c1ccc(C(C)(C)C)cc1)c1ccccc1 (repeat unit) | 6200 |
|  |  | 150 | 300 | *C(=C(*)c1ccc(C(C)C)cc1)c1ccccc1 (repeat unit) | 1100 |
|  |  | 7.5 | 26 | *C(=C(*)c1ccc([Si](C)(C)CCCCCCCC)cc1)c1ccc(C(C)(C)C)cc1 (repeat unit) | 100 |
| 1450 | 2500 | 650 | 1300 | *C(=C(*)c1ccc2c(ccc3ccccc32)c1)c1ccccc1 (repeat unit) | 5300 |
| 490 | 1700 | 210 | 580 | *C(=C(*)c1cccc(O)c1)c1ccc(C(C)(C)C)cc1 (repeat unit) | 3000 |
| 0.1 | 9.2 | 0.0986 | 0.68 | *C(=O)c1ccc(C2(c3ccc(C(=O)c4ccc(Oc5ccc(C(=O)c6ccc(Oc7ccc(*)cc7)cc6)cc5)cc4)cc3)OC(=O)c3ccccc32)cc1 (repeat unit) | 3.1 |
| 0.0276 | 5.3 | 0.031 | 0.27 | *C(=O)c1ccc(C2(c3ccc(C(=O)c4ccc(Oc5ccc(C(=O)c6cccc(C(=O)c7ccc(Oc8ccc(*)cc8)cc7)c6)cc5)cc4)cc3)OC(=O)c3ccccc32)cc1 (repeat unit) | 0.91 |
| 1.39 | 27.1 | 1.37 | 5.54 | *C(=O)c1ccc([Si](C)(C)c2ccc(C(*)=O)cc2)cc1 (repeat unit) | 22.2 |
| 0.0017 |  | 0.00259 | 0.021 | *C(=O)n1c(*)nc2cc3nc4c5ccc(*)c6c(*)ccc(c(=O)n4c3cc21)c65 (repeat unit) | 0.12 |
|  |  |  |  | *CC(*)OC(=O)c1ccccc1 (repeat unit) | 6.32 |
|  |  | 10.1 | 37.7 | *CC(*)c1ccc(C([Si](C)(C)C)[Si](C)(C)C)cc1 (repeat unit) | 150 |
|  | 1540 | 162 | 534 | *Oc1cc2c(cc1O*)C1(CC2(C)C)CC(C)(C)c2cc3c(cc21)Oc1c(C#N)c(*)c(*)c(C(=O)O)c1O3 (repeat unit) | 2540 |
|  | 2.4 | 0.027 | 0.15 | *Oc1ccc(-c2nn(-c3ccc(S(=O)(=O)c4ccc(*)cc4)cc3)c(=O)c3ccccc23)cc1 (repeat unit) | 0.92 |
| 5.6 | 210 | 7.3 | 32 | *c1cccc(-c2cc(C)c(-c3cccc(*)c3C)cc2C)c1C (repeat unit) | 190 |
| 0.0018 | 0.615 | 0.0048 | 0.015 | *c1cccc(-c2nc3cc(-c4ccc5[nH]c(*)nc5c4)ccc3[nH]2)c1 (repeat unit) | 0.16 |
| 0.0491 |  | 0.09 | 0.52 | *c1cccc(-c2nnc(*)n2-c2ccccc2)c1 (repeat unit) | 2.7 |
| 1.41 |  | 2.37 | 12.5 | *c1cccc(C(c2cccc(-c3nnc(*)n3-c3ccc(O)cc3)c2)(C(F)(F)F)C(F)(F)F)c1 (repeat unit) | 66.3 |
| 4.66 |  | 5.93 | 26.1 | *c1cccc(C(c2cccc(-c3nnc(*)n3-c3ccccc3)c2)(C(F)(F)F)C(F)(F)F)c1 (repeat unit) | 132 |
| 0.08 |  | 0.261 | 1.8 | *c1cccc(C(c2cccc(N3C(=O)c4ccc(C(c5ccc6c(c5)C(=O)N(*)C6=O)(C(F)(F)F)C(F)(F)F)cc4C3=O)c2)(C(F)(F)F)C(F)(F)F)c1 (repeat unit) | 5.1 |
| 0.0086 |  | 0.016 | 0.112 | *c1cccc(N2C(=O)c3ccc(C(=O)c4ccc5c(c4)C(=O)N(*)C5=O)cc3C2=O)c1 (repeat unit) | 0.428 |
| 0.163 | 35.5 | 0.419 | 2.79 | *c1cccc(N2C(=O)c3ccc(C(c4ccc5c(c4)C(=O)N(*)C5=O)(C(F)(F)F)C(F)(F)F)cc3C2=O)c1 (repeat unit) | 9.7 |
| 0.88 | 102 | 1.89 | 10.8 | *c1cccc(N2C(=O)c3ccc(C(c4ccc5c(c4)C(=O)N(*)C5=O)(C(F)(F)F)C(F)(F)F)cc3C2=O)c1C (repeat unit) | 36.2 |
| 0.17 | 19 | 0.292 | 1.4 | *c1cccc(Oc2ccc(C(c3ccc(Oc4cccc(-n5c(=O)c6cc7c(=O)n(*)c(=O)c7cc6c5=O)c4)cc3)(C(F)(F)F)C(F)(F)F)cc2)c1 (repeat unit) | 6.12 |
| 0.136 | 21 | 0.241 | 1.35 | *c1cccc(Oc2ccc(C(c3ccc(Oc4cccc(N5C(=O)c6ccc(C(c7ccc8c(c7)C(=O)N(*)C8=O)(C(F)(F)F)C(F)(F)F)cc6C5=O)c4)cc3)(C(F)(F)F)C(F)(F)F)cc2)c1 (repeat unit) | 6 |
| 27 | 350 | 19 | 77 | *c1cccc2c(-n3c(=O)c4cc5oc6cc7c(cc6oc5cc4c3=O)C3(CC(C)(C)c4cc5oc6cc8c(=O)n(*)c(=O)c8cc6oc5cc43)CC7(C)C)cccc12 (repeat unit) | 510 |
| 0.07 | 6.86 | 0.13 | 0.99 | *c1ccccc1Oc1ccc2ccccc2c1-c1c(Oc2ccccc2N2C(=O)c3ccc(C(c4ccc5c(c4)C(=O)N(*)C5=O)(C(F)(F)F)C(F)(F)F)cc3C2=O)ccc2ccccc12 (repeat unit) | 4.88 |

| Structure (SMILES) | CH4 permeability [Barrer] | H2 permeability [Barrer] | N2 permeability [Barrer] | O2 permeability [Barrer] | CO2 permeability [Barrer] |
| --- | --- | --- | --- | --- | --- |
| */C(C)=C(/*)[Si](C)(C)c1ccccc1 (repeat unit) | 1.7 | 14 | 1.2 | 4.4 | 37.6 |
| */C(C)=C(/*)c1ccc([Si](C)(C)C)cc1 (repeat unit) | 200 | 510 | 100 | 240 | 950 |
| */C=C/C1CC(*)CC1[Si](C)(C)C (repeat unit) | 17 | 140 | 7.2 | 30 | 89 |
| *C(=C(*)c1ccccc1)c1ccccc1 (repeat unit) | 3700 |  | 2720 | 3600 | 6600 |
| *C(C)=C(*)CCC (repeat unit) | 21 | 160 | 12 | 39 | 120 |
| *C(C)=C(*)CCC(C)C (repeat unit) | 112 | 370 | 51 | 130 | 390 |
| *C/C=C\C* (repeat unit) |  | 41.9 | 15.8 | 19 | 138 |
| *CC(*)(C)C#N (repeat unit) |  |  |  | 0.0012 | 0.0032 |
| *CC(*)(Cl)Cl (repeat unit) |  |  | 0.000939 | 0.00519 | 0.029 |
| *CC(*)C#N (repeat unit) |  |  | 0.00016 | 0.00028 | 0.0018 |
| *CC(*)CC(C)C (repeat unit) |  |  |  | 32.3 | 92.6 |
| *CC(*)F (repeat unit) |  | 0.35 |  |  | 0.0791 |
| *CC(*)O (repeat unit) |  |  |  | 7e-07 | 1.2e-06 |
| *CC(*)OC1CCCCC1 (repeat unit) |  |  | 0.99 | 3.69 | 13.6 |
| *CC(*)OCC1CC2CC1C1CCCC21 (repeat unit) |  |  | 0.13 | 0.81 | 2.85 |
| *CC(*)OCC1CCCCC1 (repeat unit) |  |  | 0.4 | 1.55 | 5.89 |
| *CC(*)[Si](C)(C)c1ccccc1 (repeat unit) |  |  | 0.45 | 2.47 | 12.3 |
| *CCC(F)(Cl)C(*)(F)F (repeat unit) |  |  | 0.061 | 0.152 | 0.607 |
| *CCSS* (repeat unit) |  | 1.57 |  | 0.288 | 3.14 |
| *Cc1ccc(C*)c(Br)c1 (repeat unit) |  | 0.452 |  |  | 0.036 |
| *Cc1ccc(C*)c(C#N)c1 (repeat unit) |  | 1.78 |  | 0.0904 | 0.301 |
| *Cc1ccc(C*)c(CC)c1 (repeat unit) |  | 4.31 | 0.0904 | 0.5 | 1.89 |
| *N=P(*)(C)C (repeat unit) |  |  | 1.27 | 3.53 | 29.4 |
| *NCCCCCC(*)=O (repeat unit) |  |  |  | 0.036 | 0.165 |
| *NCCCCCCCCCCC(*)=O (repeat unit) |  | 2.63 |  |  | 1 |
| *Nc1ccc(*)cc1OCC (repeat unit) |  | 8.1 | 0.107 | 0.62 | 2.22 |
